Data: ChEMBL document CHEMBL1143749, “A new therapeutic approach in Alzheimer disease: some novel pyrazole derivatives as dual MAO-B inhibitors and antiinflammatory analgesics” (Bioorg Med Chem, 2007)

Tests used:
[1] = target: T1, Amine oxidase [flavin-containing] A (Rattus norvegicus, UniProt P21396); assay: Inhibition of rat liver MAOA
T1 sequence (P21396 whole entry): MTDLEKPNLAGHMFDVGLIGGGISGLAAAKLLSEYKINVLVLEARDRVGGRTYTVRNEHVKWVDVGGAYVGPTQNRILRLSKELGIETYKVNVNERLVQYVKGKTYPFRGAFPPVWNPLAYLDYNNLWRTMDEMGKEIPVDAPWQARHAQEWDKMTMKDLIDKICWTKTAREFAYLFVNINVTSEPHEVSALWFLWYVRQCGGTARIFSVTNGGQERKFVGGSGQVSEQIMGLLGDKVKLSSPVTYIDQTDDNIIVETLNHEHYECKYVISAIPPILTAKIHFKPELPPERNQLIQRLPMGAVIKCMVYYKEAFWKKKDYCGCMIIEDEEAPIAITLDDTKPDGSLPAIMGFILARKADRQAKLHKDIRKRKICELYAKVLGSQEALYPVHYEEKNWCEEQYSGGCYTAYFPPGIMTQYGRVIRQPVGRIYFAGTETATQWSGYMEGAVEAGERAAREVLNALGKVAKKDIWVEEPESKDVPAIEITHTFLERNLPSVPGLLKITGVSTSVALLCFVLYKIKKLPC

Mus musculus [2] = assay: Inhibition of carrageenan-induced hind paw oedema in Swiss Albino mouse at 100 mg/kg, po after 180 mins relative to control; assay type: functional; settings: for inhibition in vivo at 100 mg/kg: Mus musculus, Swiss Albino, po, 3 h
[3] = target: T1, Amine oxidase [flavin-containing] A; assay: Inhibition of rat liver MAOA after 60 mins pre-incubation
[4] = target: T2, Amine oxidase [flavin-containing] B (Rattus norvegicus, UniProt P19643); assay: Inhibition of rat liver MAOB after 60 mins pre-incubation
T2 sequence (P19643 whole entry): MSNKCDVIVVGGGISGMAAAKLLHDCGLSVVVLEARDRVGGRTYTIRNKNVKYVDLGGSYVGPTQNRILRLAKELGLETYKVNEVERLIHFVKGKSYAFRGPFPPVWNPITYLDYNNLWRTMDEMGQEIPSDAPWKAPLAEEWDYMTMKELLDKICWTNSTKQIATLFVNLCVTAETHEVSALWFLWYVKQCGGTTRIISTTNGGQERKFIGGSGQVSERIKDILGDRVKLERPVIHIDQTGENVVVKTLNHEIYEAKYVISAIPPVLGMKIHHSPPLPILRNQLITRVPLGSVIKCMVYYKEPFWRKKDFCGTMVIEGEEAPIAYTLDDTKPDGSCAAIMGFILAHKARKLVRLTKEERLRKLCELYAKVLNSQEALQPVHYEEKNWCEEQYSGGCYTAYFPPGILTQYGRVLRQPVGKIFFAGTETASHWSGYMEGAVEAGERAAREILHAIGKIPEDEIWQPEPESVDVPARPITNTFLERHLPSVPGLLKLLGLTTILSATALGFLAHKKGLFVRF

Mus musculus [5] = assay: Analgesic activity against p-Benzoquinone-induced writhings in Swiss Albino mouse assessed as number writhings at 100 mg/kg, po; assay type: functional
Mus musculus [6] = assay: Inhibition of carrageenan-induced hind paw oedema in Swiss Albino mouse at 100 mg/kg, po after 270 mins relative to control; assay type: functional; settings: for inhibition in vivo at 100 mg/kg: Mus musculus, Swiss Albino, po, 4.5 h
Mus musculus [7] = assay: Toxicity in Swiss Albino mouse assessed as ulcerogenic abdomen lesions at 100 mg/kg, po; assay type: organism-based; parameters: dose 100 mg/kg, route oral; settings: in vivo
Mus musculus [8] = assay: Inhibition of carrageenan-induced hind paw oedema in Swiss Albino mouse at 100 mg/kg, po after 90 mins relative to control; assay type: functional; settings: for inhibition in vivo at 100 mg/kg: Mus musculus, Swiss Albino, po, 1.5 h
Mus musculus [9] = assay: Inhibition of p-Benzoquinone-induced writhings in Swiss Albino mouse at 100 mg/kg, po relative to control; assay type: functional; settings: for inhibition in vivo at 100 mg/kg: Mus musculus, Swiss Albino, po
Mus musculus [10] = assay: Inhibition of carrageenan-induced hind paw oedema in Swiss Albino mouse at 100 mg/kg, po after 360 mins relative to control; assay type: functional; settings: for inhibition in vivo at 100 mg/kg: Mus musculus, Swiss Albino, po, 6 h
Mus musculus [11] = assay: Inhibition of acetic acid-induced capillary permeability in Swiss Albino mouse at 100 mg/kg, po; assay type: functional
[12] = target: T2, Amine oxidase [flavin-containing] B; assay: Inhibition of rat liver MAOB
Mus musculus [13] = assay: Inhibition of acetic acid-induced capillary permeability in Swiss Albino mouse at 10 mg/kg, po; settings: read-out: Inhibition

SMILES | Ki [1] [µM] | inhibition in vivo at 100 mg/kg (Mus musculus [2]) [%] | IC50 [3] [µM] | IC50 [4] [µM] | writhing count (Mus musculus [5]) [writhings] | inhibition in vivo at 100 mg/kg (Mus musculus [6]) [%] | Activity (Mus musculus [7]) | inhibition in vivo at 100 mg/kg (Mus musculus [8]) [%] | inhibition in vivo at 100 mg/kg (Mus musculus [9]) [%] | inhibition in vivo at 100 mg/kg (Mus musculus [10]) [%] | inhibition in vivo at 100 mg/kg (Mus musculus [11]) [%] | Activity (Mus musculus [5]) | Ki [12] [µM] | Inhibition (Mus musculus [2]) [%] | Inhibition (Mus musculus [6]) [%] | Inhibition (Mus musculus [8]) [%] | Inhibition (Mus musculus [9]) [%] | Inhibition (Mus musculus [10]) [%] | inhibition in vivo at 10 mg/kg (Mus musculus [13]) [%]
CCCNC(=S)N1N=C(c2ccc(Cl)cc2)CC1c1ccc[nH]1 (stereo not drawn) | 33.2 | 25.2 | 29.2 | 421 | 20.5 | 23.9 | Non-toxic | 19.8 | 57.9 | 28.1 | 28.3 |  |  |  |  |  |  |  | 
CC(=O)Oc1ccccc1C(=O)O [ASPIRIN] |  |  |  |  |  |  |  |  | 54.3 |  |  | 22.3 |  |  |  |  |  |  | 
CNC(=S)N1N=C(c2ccc(OC)cc2)CC1c1ccc[nH]1 (stereo not drawn) |  | 14.7 | 430 | 12.5 | 39.2 | 10.5 | Non-toxic | 14.2 | 19.7 | 17.7 |  |  | 12.5 |  |  |  |  |  | 
CCNC(=S)N1N=C(c2ccc(Cl)cc2)CC1c1ccc[nH]1 (stereo not drawn) | 26.9 | 21.3 | 20.2 | 450 | 21.5 | 20.6 | Non-toxic | 16.1 | 55.9 | 24 | 23.5 |  |  |  |  |  |  |  | 
CCCNC(=S)N1N=C(c2ccc(OC)cc2)CC1c1ccc[nH]1 (stereo not drawn) |  | 23.6 | 409 | 29.1 | 19.5 | 22.6 | Non-toxic | 20.3 | 60 | 32.8 | 34.8 |  | 33.7 |  |  |  |  |  | 
Cl.S=C(Nc1ccccc1)N1N=C(c2ccc(Cl)cc2)CC1c1ccc[nH]1 (stereo not drawn) | 60.8 |  | 59.3 | 441 |  |  | Non-toxic |  |  |  |  |  |  |  |  |  |  |  | 
C#CCN(C)Cc1ccccc1 [PARGYLINE] |  |  | 390 | 2.85 |  |  |  |  |  |  |  |  |  |  |  |  |  |  | 
CNC(=S)N1N=C(c2ccc(Cl)cc2)CC1c1ccc[nH]1 (stereo not drawn) | 13.2 | 6.6 | 11.2 | 416 | 37.8 | 7.2 |  |  | 22.5 | 1.9 | 20.7 |  |  |  |  |  |  |  | 
CNC(=S)N1N=C(c2ccc(C)cc2)CC1c1ccc[nH]1 (stereo not drawn) |  | 11.2 | 295 | 349 | 39.7 | 12.2 | Non-toxic | 13.2 | 18.6 | 16.3 |  |  |  |  |  |  |  |  | 
Cc1ccc(C2=NN(C(=S)Nc3ccccc3)C(c3ccc[nH]3)C2)cc1 (stereo not drawn) |  |  | 300 | 351 | 45.2 |  | Non-toxic |  |  |  |  |  |  | 13.1 | 6.1 | 9.1 | 7.4 | 11.8 | 
COc1ccc2c(c1)c(CC(=O)O)c(C)n2C(=O)c1ccc(Cl)cc1 [INDOMETHACIN] |  | 37.1 |  |  |  | 33.6 |  | 32.3 |  | 42.2 |  |  |  |  |  |  |  |  | 48.1
CCCNC(=S)N1N=C(c2ccc(C)cc2)CC1c1ccc[nH]1 (stereo not drawn) |  | 20.9 | 369 | 389 | 25.3 | 15.7 | Non-toxic | 14.6 | 48.2 | 22.7 |  |  |  |  |  |  |  |  | 
CCNC(=S)N1N=C(c2ccc(OC)cc2)CC1c1ccc[nH]1 (stereo not drawn) |  | 22.7 | 400 | 22.1 | 21.2 | 18.9 | Non-toxic | 23.2 | 56.6 | 27.6 | 25.9 |  | 24 |  |  |  |  |  | 
COc1ccc(C2=NN(C(=S)Nc3ccccc3)C(c3ccc[nH]3)C2)cc1 (stereo not drawn) |  | 22.6 | 431 | 30.1 | 25.2 | 16.5 | Non-toxic | 20.7 | 48.4 | 21.6 | 22.3 |  | 37.1 |  |  |  |  |  | 
CCNC(=S)N1N=C(c2ccc(C)cc2)CC1c1ccc[nH]1 (stereo not drawn) |  | 10.5 | 329 | 369 | 41.3 | 12.4 | Non-toxic | 4.9 | 15.4 | 16.3 |  |  |  |  |  |  |  |  | 
